# Measured values as given in ChEMBL document CHEMBL2202996, “Synthesis, evaluation, and radiolabeling of new potent positive allosteric modulators of the metabotropic glutamate receptor 2 as potential tracers for positron emission tomography imaging” (J Med Chem, 2012).
# Experiments:
# [1] = Fraction unbound in human plasma; assay type: ADME, cell-free
# [2] = Fraction unbound in rat plasma; assay type: ADME, cell-free
# Liver microsomes [3] = assay: Drug metabolism in rat liver microsomes assessed as M+O oxidative metabolite; assay type: ADME, Microsome
# Liver microsomes [4] = assay: Drug metabolism in human liver microsomes assessed as M+O oxidative metabolite; assay type: ADME, Microsome
# Liver microsomes [5] = assay: Drug metabolism in rat liver microsomes assessed as O-methylated compound derivative; assay type: ADME, Microsome
# Liver microsomes [6] = assay: Drug metabolism in human liver microsomes assessed as O-methylated compound derivative; assay type: ADME, Microsome
# [7] = target: T1, Metabotropic glutamate receptor 2 (Homo sapiens, UniProt Q14416); assay: Agonist activity at human mGLuR2 expressed in CHO cell membrane assessed as […] after 30 mins by scintillation counting relative to control; assay type: functional, cell membranes
# Target sequence in this assay (Q14416 19-872 limits assumed): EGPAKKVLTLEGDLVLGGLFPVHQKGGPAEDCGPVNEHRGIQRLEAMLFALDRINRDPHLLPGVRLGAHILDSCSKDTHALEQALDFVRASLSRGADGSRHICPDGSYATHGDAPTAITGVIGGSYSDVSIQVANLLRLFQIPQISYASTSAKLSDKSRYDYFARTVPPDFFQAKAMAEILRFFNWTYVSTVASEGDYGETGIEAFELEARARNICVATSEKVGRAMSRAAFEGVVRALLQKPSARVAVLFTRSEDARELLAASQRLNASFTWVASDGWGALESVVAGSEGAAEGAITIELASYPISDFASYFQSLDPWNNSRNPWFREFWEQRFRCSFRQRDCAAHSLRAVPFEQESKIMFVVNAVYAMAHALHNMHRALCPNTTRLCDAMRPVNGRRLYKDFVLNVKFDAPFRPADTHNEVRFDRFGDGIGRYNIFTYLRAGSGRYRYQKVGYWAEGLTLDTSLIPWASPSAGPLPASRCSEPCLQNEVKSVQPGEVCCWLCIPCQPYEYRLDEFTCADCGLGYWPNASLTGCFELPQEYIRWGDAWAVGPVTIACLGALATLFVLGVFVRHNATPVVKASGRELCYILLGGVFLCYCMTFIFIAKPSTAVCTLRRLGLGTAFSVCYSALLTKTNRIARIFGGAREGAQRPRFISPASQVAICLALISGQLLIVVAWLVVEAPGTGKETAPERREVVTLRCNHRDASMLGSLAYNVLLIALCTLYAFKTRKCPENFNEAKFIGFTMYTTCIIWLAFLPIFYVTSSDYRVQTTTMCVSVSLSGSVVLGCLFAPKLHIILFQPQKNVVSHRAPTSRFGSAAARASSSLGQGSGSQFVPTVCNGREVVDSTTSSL
# [8] = target: T1, Metabotropic glutamate receptor 2; assay: Agonist activity at human mGLuR2 expressed in CHO cell membrane assessed as […] after 30 mins by scintillation counting; assay type: functional, cell membranes
# Target sequence in this assay (Q14416 whole entry): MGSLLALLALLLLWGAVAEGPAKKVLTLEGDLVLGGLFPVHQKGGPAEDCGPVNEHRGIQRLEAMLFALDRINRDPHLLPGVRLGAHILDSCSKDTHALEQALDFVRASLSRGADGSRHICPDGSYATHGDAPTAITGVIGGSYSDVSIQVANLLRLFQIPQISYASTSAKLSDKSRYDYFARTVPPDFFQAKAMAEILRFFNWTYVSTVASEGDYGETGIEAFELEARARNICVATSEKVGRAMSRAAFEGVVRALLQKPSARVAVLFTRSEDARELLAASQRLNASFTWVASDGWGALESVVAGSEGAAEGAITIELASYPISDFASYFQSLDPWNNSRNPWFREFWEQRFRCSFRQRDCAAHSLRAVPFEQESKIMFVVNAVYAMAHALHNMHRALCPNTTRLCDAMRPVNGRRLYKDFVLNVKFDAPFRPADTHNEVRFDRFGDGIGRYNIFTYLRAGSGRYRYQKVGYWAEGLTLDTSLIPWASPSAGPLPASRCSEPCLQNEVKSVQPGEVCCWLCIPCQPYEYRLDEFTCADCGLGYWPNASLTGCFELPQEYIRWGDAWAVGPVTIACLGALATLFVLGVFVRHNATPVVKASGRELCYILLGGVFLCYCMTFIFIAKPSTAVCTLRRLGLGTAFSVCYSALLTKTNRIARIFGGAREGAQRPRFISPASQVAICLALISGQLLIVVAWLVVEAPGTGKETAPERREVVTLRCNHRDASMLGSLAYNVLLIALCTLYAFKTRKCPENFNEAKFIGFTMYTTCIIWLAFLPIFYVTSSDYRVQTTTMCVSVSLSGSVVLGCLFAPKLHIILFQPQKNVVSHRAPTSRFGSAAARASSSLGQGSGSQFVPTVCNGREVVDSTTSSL
# CHO [9] = assay: Selectivity ratio for rat mGluR6 to human mGluR2 expressed in CHO cell membranes; assay type: cell-based
# CHO [10] = assay: Selectivity ratio for human mGluR4 to human mGluR2 expressed in CHO cell membranes; assay type: cell-based
# HEK293 [11] = assay: Selectivity ratio for human mGluR8 expressed in HEK293 cells to human mGluR2 expressed in CHO cell membranes; assay type: cell-based
# HEK293 [12] = assay: Selectivity ratio for human mGluR7 expressed in HEK293 cells to human mGluR2 expressed in CHO cell membranes; assay type: cell-based
# HEK293 [13] = assay: Selectivity ratio for human mGluR5 expressed in HEK293 cells to human mGluR2 expressed in CHO cell membranes; assay type: cell-based
# HEK293 [14] = assay: Selectivity ratio for human mGluR3 expressed in HEK293 cells to human mGluR2 expressed in CHO cell membranes; assay type: cell-based
# HEK293 [15] = assay: Selectivity ratio for human mGluR1 expressed in HEK293 cells to human mGluR2 expressed in CHO cell membranes; assay type: cell-based
# [16] = target: T1, Metabotropic glutamate receptor 2; assay: Displacement of [3H]JNJ-40068782 from human mGLuR2 expressed in CHO cell membrane after 60 mins by liquid scintillation counting; assay type: cell membranes
# Target sequence in this assay (Q14416 whole entry): as above
# [17] = Metabolic stability in Wistar rat cerebellum assessed as intact tracer at 74 MBq, iv measured at 30 mins post administration by gamma counting; assay type: ADME, organism-based; settings: read-out: Stability
# [18] = Metabolic stability in Wistar rat cerebrum assessed as intact tracer at 74 MBq, iv measured at 30 mins post administration by gamma counting; assay type: ADME, organism-based; settings: read-out: Stability
# [19] = Metabolic stability in Wistar rat plasma assessed as intact tracer at 74 MBq, iv measured at 30 mins post administration by gamma counting; assay type: ADME, organism-based; settings: read-out: Stability
# Rattus norvegicus = assay: Biodistribution in Wistar rat urinary system at 22 Mbq, iv measured at 60 mins post administration by gamma counting; assay type: ADME, organism-based, Urine; settings: in vivo, 1 h
# Liver = assay: Biodistribution in Wistar rat liver at 22 Mbq, iv measured at 60 mins post administration by gamma counting; assay type: ADME, organism-based; settings: in vivo, 1 h
# Intestine = assay: Biodistribution in Wistar rat intestine at 22 Mbq, iv measured at 60 mins post administration by gamma counting; assay type: ADME, organism-based; settings: in vivo, 1 h
# Brain [20] = assay: Ratio of SUV in total brain in iv dosed Wistar at 2 mins post administration by gamma counting to SUV in total brain in iv dosed Wistar at 30 mins post administration by gamma counting; assay type: ADME, organism-based; settings: rat, in vivo
# Cerebellum [21] = assay: Ratio of SUV in cerebellum in iv dosed Wistar at 2 mins post administration by gamma counting to SUV in cerebellum in iv dosed Wistar at 30 mins post administration by gamma counting; assay type: ADME, organism-based; settings: rat, in vivo
# Cerebrum [22] = assay: Ratio of SUV in cerebrum in iv dosed Wistar at 2 mins post administration by gamma counting to SUV in cerebrum in iv dosed Wistar at 30 mins post administration by gamma counting; assay type: ADME, organism-based; settings: rat, in vivo
# Cortex = assay: Ratio of SUV in cortex in iv dosed Wistar at 2 mins post administration by gamma counting to SUV in cortex in iv dosed Wistar at 30 mins post administration by gamma counting; assay type: ADME, organism-based; settings: rat, in vivo
# Hippocampus = assay: Ratio of SUV in hippocampus in iv dosed Wistar at 2 mins post administration by gamma counting to SUV in hippocampus in iv dosed Wistar at 30 mins post administration by gamma counting; assay type: ADME, organism-based; settings: rat, in vivo
# Striatum = assay: Ratio of SUV in striatum in iv dosed Wistar at 2 mins post administration by gamma counting to SUV in striatum in iv dosed Wistar at 30 mins post administration by gamma counting; assay type: ADME, organism-based; settings: rat, in vivo
# Cerebellum [23] = assay: Biodistribution in Wistar rat cerebellum at 22 Mbq, iv measured at 2 mins post administration by gamma counting; assay type: ADME, organism-based; settings: in vivo
# Cerebrum [24] = assay: Biodistribution in Wistar rat cerebrum at 22 Mbq, iv measured at 2 mins post administration by gamma counting; assay type: ADME, organism-based; settings: in vivo
# Brain [25] = assay: Biodistribution in Wistar rat brain at 22 Mbq, iv measured at 2 mins post administration by gamma counting; assay type: ADME, organism-based; settings: in vivo
compound,measurement,setting,value
COc1c(F)cccc1C1CCN(c2ccn3c(CC(F)(F)F)nnc3c2C#N)CC1,fraction unbound,[1],0.047
same,fraction unbound,[2],0.04
same,Drug metabolism,Liver microsomes [3],Active
same,Drug metabolism,Liver microsomes [4],Active
same,Drug metabolism,Liver microsomes [5],Active
same,Drug metabolism,Liver microsomes [6],Active
same,Emax,[7],306%
same,EC50,[8]; read-out: EC50,0.031 µM
COc1ccc(F)c(F)c1C1CCN(c2ccn3c(CC4CC4)nnc3c2Cl)CC1,fraction unbound,[1],< 0.01
same,fraction unbound,[2],< 0.01
same,Drug metabolism,Liver microsomes [3],Active
same,Drug metabolism,Liver microsomes [4],Active
same,Drug metabolism,Liver microsomes [5],Active
same,Drug metabolism,Liver microsomes [6],Active
same,Selectivity ratio,CHO [9],> 350
same,Selectivity ratio,CHO [10],> 350
same,Selectivity ratio,HEK293 [11],> 350
same,Selectivity ratio,HEK293 [12],> 350
same,Selectivity ratio,HEK293 [13],> 350
same,Selectivity ratio,HEK293 [14],70
same,Selectivity ratio,HEK293 [15],> 350
same,IC50,[16],0.0073 µM
same,Emax,[7],258%
N#Cc1c(N2CCC(c3ccccc3)CC2)ccn2c(CC(F)(F)F)nnc12,EC50,[8]; read-out: pEC50 (converted),0.0562 µM
COc1c(F)ccc(F)c1C1CCN(c2ccn3c(CC4CC4)nnc3c2C(F)(F)F)CC1,fraction unbound,[1],< 0.01
same,fraction unbound,[2],< 0.01
same,Drug metabolism,Liver microsomes [3],Active
same,Drug metabolism,Liver microsomes [4],Active
same,Drug metabolism,Liver microsomes [5],Active
same,Drug metabolism,Liver microsomes [6],Active
same,Selectivity ratio,CHO [9],> 350
same,Selectivity ratio,CHO [10],> 350
same,Selectivity ratio,HEK293 [11],> 350
same,Selectivity ratio,HEK293 [12],> 350
same,Selectivity ratio,HEK293 [13],> 350
same,Selectivity ratio,HEK293 [14],> 350
same,Selectivity ratio,HEK293 [15],> 350
same,Emax,[7],421%
[11CH3]Oc1ccc(F)cc1C1CCN(c2ccn3c(CC4CC4)nnc3c2Cl)CC1,remaining at 0.5 h,[17],92.7%
same,remaining at 0.5 h,[18],92.4%
same,remaining at 0.5 h,[19],41%
same,Drug uptake,Rattus norvegicus,Active
same,Drug uptake,Liver,Active
same,Drug uptake,Intestine,Active
same,Ratio,Brain [20],0.79
same,Ratio,Cerebellum [21],0.63
same,Ratio,Cerebrum [22],0.83
same,Ratio,Cortex,0.88
same,Ratio,Hippocampus,0.66
same,Ratio,Striatum,0.63
same,Drug uptake,Cerebellum [23],0.1 %ID
same,Drug uptake,Cerebrum [24],0.45 %ID
same,Drug uptake,Brain [25],0.58 %ID
[11CH3]Oc1cccc(F)c1C1CCN(c2ccn3c(CC4CC4)nnc3c2Cl)CC1,Drug uptake,Rattus norvegicus,Active
same,Drug uptake,Liver,Active
same,Drug uptake,Intestine,Active
same,Ratio,Brain [20],0.72
same,Ratio,Cerebellum [21],0.71
same,Ratio,Cerebrum [22],0.6
same,Ratio,Cortex,0.71
same,Ratio,Hippocampus,0.63
same,Ratio,Striatum,0.59
same,Drug uptake,Cerebellum [23],0.17 %ID
same,Drug uptake,Cerebrum [24],0.45 %ID
same,Drug uptake,Brain [25],0.65 %ID
COc1cc(F)cc(F)c1C1CCN(c2ccn3c(CC4CC4)nnc3c2Cl)CC1,fraction unbound,[1],< 0.01
same,fraction unbound,[2],< 0.01
same,Drug metabolism,Liver microsomes [3],Active
same,Drug metabolism,Liver microsomes [4],Active
same,Drug metabolism,Liver microsomes [5],Active
same,Drug metabolism,Liver microsomes [6],Active
same,Selectivity ratio,CHO [9],> 350
same,Selectivity ratio,CHO [10],> 350
same,Selectivity ratio,HEK293 [11],> 350
same,Selectivity ratio,HEK293 [12],> 350
same,Selectivity ratio,HEK293 [13],> 350
same,Selectivity ratio,HEK293 [14],> 350
same,Selectivity ratio,HEK293 [15],> 350
same,IC50,[16],0.0056 µM
same,Emax,[7],256%
COc1ccccc1C1CCN(c2ccn3c(CC4CC4)nnc3c2Cl)CC1,fraction unbound,[1],< 0.01
same,fraction unbound,[2],< 0.01
same,Drug metabolism,Liver microsomes [3],Active
same,Drug metabolism,Liver microsomes [4],Active
same,Drug metabolism,Liver microsomes [5],Active
same,Drug metabolism,Liver microsomes [6],Active
same,Emax,[7],345%
COc1c(C2CCN(c3ccn4c(CC5CC5)nnc4c3Cl)CC2)ccc(F)c1F,fraction unbound,[1],< 0.01
same,fraction unbound,[2],< 0.01
same,Drug metabolism,Liver microsomes [3],Active
same,Drug metabolism,Liver microsomes [4],Active
same,Drug metabolism,Liver microsomes [5],Active
same,Drug metabolism,Liver microsomes [6],Active
same,Emax,[7],342%
same,EC50,[8]; read-out: EC50,0.026 µM
[11CH3]Oc1c(F)ccc(F)c1C1CCN(c2ccn3c(CC4CC4)nnc3c2C(F)(F)F)CC1,Ratio,Brain [20],1.08
same,Ratio,Cerebellum [21],0.99
same,Ratio,Cerebrum [22],0.98
same,Ratio,Cortex,1.04
same,Ratio,Hippocampus,1.01
same,Ratio,Striatum,0.86
same,Drug uptake,Cerebellum [23],0.17 %ID
same,Drug uptake,Cerebrum [24],0.54 %ID
same,Drug uptake,Brain [25],0.75 %ID
COc1c(F)cccc1C1CCN(c2ccn3c(CC4CC4)nnc3c2C(F)(F)F)CC1,fraction unbound,[1],< 0.01
same,fraction unbound,[2],< 0.01
same,Drug metabolism,Liver microsomes [3],Active
same,Drug metabolism,Liver microsomes [4],Active
same,Drug metabolism,Liver microsomes [5],Active
same,Drug metabolism,Liver microsomes [6],Active
same,Emax,[7],528%
same,EC50,[8]; read-out: EC50,0.011 µM
COc1cccc(F)c1C1CCN(c2ccn3c(CC4CC4)nnc3c2Cl)CC1,fraction unbound,[1],< 0.01
same,fraction unbound,[2],< 0.01
same,Drug metabolism,Liver microsomes [3],Active
same,Drug metabolism,Liver microsomes [4],Active
same,Drug metabolism,Liver microsomes [5],Active
same,Drug metabolism,Liver microsomes [6],Active
same,Selectivity ratio,CHO [9],> 350
same,Selectivity ratio,CHO [10],> 350
same,Selectivity ratio,HEK293 [11],> 350
same,Selectivity ratio,HEK293 [12],> 350
same,Selectivity ratio,HEK293 [13],> 350
same,Selectivity ratio,HEK293 [14],> 350
same,Selectivity ratio,HEK293 [15],> 350
same,IC50,[16],0.0112 µM
same,Emax,[7],304%
COc1c(F)cccc1C1CCN(c2ccn3c(CC4CC4)nnc3c2Cl)CC1,fraction unbound,[1],< 0.01
same,fraction unbound,[2],< 0.01
same,Drug metabolism,Liver microsomes [3],Active
same,Drug metabolism,Liver microsomes [4],Active
same,Drug metabolism,Liver microsomes [5],Active
same,Drug metabolism,Liver microsomes [6],Active
same,Emax,[7],336%
COc1ccc(F)cc1C1CCN(c2ccn3c(CC(F)(F)F)nnc3c2Cl)CC1,fraction unbound,[1],< 0.01
same,fraction unbound,[2],< 0.01
same,Drug metabolism,Liver microsomes [3],Active
same,Drug metabolism,Liver microsomes [4],Active
same,Drug metabolism,Liver microsomes [5],Active
same,Drug metabolism,Liver microsomes [6],Active
same,Emax,[7],340%
